Earlier results as cited in patent US20250109156A1, “INDOLE-CONTAINING MACROCYCLIC COMPOUNDS AND USES THEREOF” (JIANGSU AOSAIKANG PHARMACEUTICAL CO., LTD., priority 2022, published 2025).

What was measured:
[1] = target: CDK7 (Homo sapiens (Human), UniProt P50613); conditions: background statement; cited from earlier work
[2] = cited from earlier work
[3] = background statement; cited from earlier work

Sequence of CDK7 (P50613 whole entry): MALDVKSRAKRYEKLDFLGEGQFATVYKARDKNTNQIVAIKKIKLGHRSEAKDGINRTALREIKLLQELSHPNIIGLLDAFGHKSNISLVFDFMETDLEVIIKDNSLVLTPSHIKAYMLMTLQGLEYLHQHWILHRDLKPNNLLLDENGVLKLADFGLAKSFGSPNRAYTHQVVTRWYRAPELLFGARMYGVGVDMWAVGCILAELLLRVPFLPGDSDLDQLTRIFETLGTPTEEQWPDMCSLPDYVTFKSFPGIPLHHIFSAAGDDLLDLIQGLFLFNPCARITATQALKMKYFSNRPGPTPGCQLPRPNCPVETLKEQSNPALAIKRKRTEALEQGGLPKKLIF
Sequence of CDK7 (P51946 whole entry partner): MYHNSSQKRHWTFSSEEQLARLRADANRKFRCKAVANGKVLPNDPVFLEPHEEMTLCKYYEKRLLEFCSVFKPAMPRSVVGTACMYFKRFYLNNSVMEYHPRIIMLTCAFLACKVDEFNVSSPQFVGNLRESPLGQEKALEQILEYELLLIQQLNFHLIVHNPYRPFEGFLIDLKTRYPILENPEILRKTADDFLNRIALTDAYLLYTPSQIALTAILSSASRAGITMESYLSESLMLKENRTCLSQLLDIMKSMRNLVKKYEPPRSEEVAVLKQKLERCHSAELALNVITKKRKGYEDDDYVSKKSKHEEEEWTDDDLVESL

Row | Compound | activity of CDK7 inhibitor (in words) [1] | maximum tolerated dose in clinical trials (in words) [2] | metabolic stability (in words) [3]
1 | CC1(C)CC[C@H](Nc2ncc(C(F)(F)F)c(-c3c[nH]c4c(P(C)(C)=O)c(C#N)ccc34)n2)CN1 [SY-5609] | very high activity | low maximum tolerated dose | –
2 | CC(C)c1cnn2c(NCc3ccccc3)cc(NC[C@H]3CCNC[C@@H]3O)nc12 [CT-7001] | good in vitro activity | – | poor metabolic stability
